Experimental data reported in patent publication US6015820A, “4-Aryl-thio-pyridin-2(1H)-ones, medicines containing them and their uses in the treatment of illnesses linked to HIV” (priority 1995, dated 2000).
Like-named read-outs stand apart in the source and are kept apart here.

Legend:
Assay type in all cases: cell-based
HIV-1 LAI = test: anti-HIV-1 activity: replication of HIV-1 LAI on CEM-SS cells
Method: The CEM-SS and the HIV-1 resistant to Nevirapine (N119) carrying a point mutation at codon 181 of the IT, were supplied respectively by P. NARA and D. RICHMAN through the intermediary of the AIDS Research and Reference Reagent Program, Division of AIDS, NIAID, NIH (USA) (Catalogue references : No. 776 and No. 1392).
The virus production was measured by quantifying the activity of the inverse transcriptase associated with viral particles released into the culture supernatant. In short, cells were infected with 100 TCID50 for 30 minutes; after adsorption of the virus, unbound particles were removed by two washings and the cells were cultivated in the presence of different concentrations of the compounds tested for 5 days before determining the viral production. The concentration inhibiting 50% of the viral multiplication (IC50) came from the computer plot of the median effect of the dose effect results (Chou et al. Elsevier Science Publishers, Cambridge U.K. (1985), 19-28).

[1] = cytotoxicity on non-infected cells (MTT test); conditions: human; Table 2; non-infected CEM-SS cells, MTT, 5 days
Method: In parallel experiments, the cytotoxicity of the molecules was measured on non-infected cells, after an incubation of 5 days in the presence of these molecules, by using a […] titration (MTT test) based on the ability of the mitochondrial dehydrogenases of the living cells to reduce 3-(4,5-dimethylthiazol-2-yl)-2,5-diphenyltetrazolium bromide in formazan (Mosmann et al. J. Immunol. Methods ([…]), 65, 55-63). The concentration cytotoxic at 50% (CC50) is the concentration at which the DO540 has been reduced to half and is calculated by using the program mentioned above.

isolated virion HIV-1LAI = test: infectivity of the isolated virion after treatment with inhibitors (HT4LacZ cells)
Method: H9 cells chronically infected with HIV-1LAI (10^8 /ml) were cocultivated with MT4 cells (10^8 /ml) for 48 hours in an RMPI medium supplemented by 10% of calf foetal serum (CFS). The cells were then removed by centrifugation and then the supernatant liquid was filtered (0.45 μm) to remove residual cells and cell debris.
After having been incubated with the various inhibitors, the viral supernatants (200 μl) were deposited in the filtering part of a VectaSpin tube (WHATMAN) fitted with an ANAPORE membrane of porosity 0.02 μm. For 10 minutes they were subjected to centrifugation, the acceleration of which reached 6000 g at the filtering membrane. The viral residuums thereby obtained (10-15 μl ) were washed 3 times under the same conditions with 500 μl of RPMI then restored to their initial volumes with RPMI containing 10% of CFS.
The HT4LacZ-1 cells were kept in a DMEM medium (glucose 4.5 g/l) supplemented with 10% of calf foetal serum in the presence of Gentamycin (50 mg/l). These cells stemmed from Hela cells in which had been cloned, on the one hand the gene coding for the human CD4 so as to render them susceptible to infection by the HIV (Chesebro and Wehrly, 1988, J. Virol., 62, 3779-3788), and on the other hand the gene for β-Galactosidase which, placed under the dependent of the LTR of the HIV-1 served as a marker for the viral infection (Rocancourt et al. (1990) J. Virol. 1990 64-6, 2660-2688). When the virus infects such cells after its integration into the cellular genome, the production of the regulatory protein TAT activates the LTR of the HIV. The result is an activation of the gene of β-Galactosidase which leads to its production in the intracellular medium and more particularly in the nucleus. It is this protein that serves as a marker of the infection.
The evening of day 0, the HT4LacZ-1 cells were diluted at the rate of 75000 cells per ml of medium. 100 μl of this suspension was then distributed over a flat bottomed plate with 96 wells and was cultivated overnight at 37° C. (5% of CO2).
The morning of day 1, the supernatant liquid was removed by aspiration. Each well was then complemented with 200 μl of the viral supernatant dilutions to be tested. Each dilution was made in a DMEM medium (glucose 4.5 g/l) supplemented with 10% of CFS. The plates were then placed in an environment at 37° C. in the presence of 5% of CO2.
After 48 hours of culture, the supernatant liquid was aspirated, then each well was washed 3 times in PBS before being complemented with 200 μl of developing buffer (Tris-HCl 50 mM pH=8.5, ONPG 5 mg/ml β-mercapto-ethanol 7 μl/ml Triton×100 0.05%). After 4 hours of incubation at 37° C., the optical density of each well was measured.
The concentration of each of the inhibitors of the IT of the HIV-1 was adjusted to 50 mM in DMSO. The later dilutions were carried out on RPMI 1640. 2 μl of suitable dilutions of each of these inhibitors were added to 198 μl of a freshly unfrozen viral suspension. After 3 hours of incubation at ambient temperature, these suspensions were filtered on 0.02 μ VecraSpin tubes, then washed 3 times with 500 μl of RPMI 1640. The viral residuums were then adjusted to 200 μL with the culture medium (RPMI-10% CFS), then tested with regard to their infectivity on HT4LacZ cells.

[2] = Human immunodeficiency virus 1, 120 h, Table 2, HIV-1 LAI, CEM-SS cells, 5 days, read-out: IC50, anti-HIV-1 activity
[3] = Table 2, HIV-1 LAI, CEM-SS cells
[4] = Human immunodeficiency virus 1, 3 h, read-out: Activity of the isolated virions after treatment
[5] = Human immunodeficiency virus 1, 1 μM inhibitor, 3 h, 100 TCID50, compared with viral supernatant subjected to same treatments, mean of 1 to 4 experiments, read-out: Activity of the isolated virions after treatment
[6] = Human immunodeficiency virus 1, 10 μM inhibitor, 3 h, 100 TCID50, compared with viral supernatant subjected to same treatments, mean of 1 to 4 experiments, read-out: Activity of the isolated virions after treatment

| Compound | IC50 (HIV-1 LAI; [2]) [µM] | SI (selectivity index) (HIV-1 LAI; [3]) | CC50 at 120 h [1] [µM] | other results |
| --- | --- | --- | --- | --- |
| Cc1c[nH]c(=O)c([N+](=O)[O-])c1Sc1ccccn1 [Compound 9h, 5-methyl-3-nitro-4-(2-pyridyl) thio-pyridin-2(1H)-one] | 18 | > 1 | 28.5 | – |
| Cc1cn([C@H]2C=C[C@@H](CO)O2)c(=O)[nH]c1=O [d4T] | – | – | – | activity at 1 µM (isolated virion HIV-1LAI; [4]): 130%; activity at 10 µM (isolated virion HIV-1LAI; [4]): 127%; activity on the isolated virion (in words) (isolated virion HIV-1LAI): totally inactive |
| Cc1cc(C)nc(Sc2c(C)c[nH]c(=O)c2[N+](=O)[O-])n1 [Compound 9a, 5-methyl-3-nitro-4-(4', 6'-dimethylpyrimidin-2-yl)thiopyridin-2(1H)-one] | 17.5 | > 1 | 19.5 | – |
| Cc1c[nH]c(=O)c([N+](=O)[O-])c1Sc1nccn1C [Compound 9g, 5-methyl-3-nitro-4-(N-methylimidazol-2-yl)thio-pyridin-2(1H)-one] | 56 | > 1 | 68.5 | – |
| Cc1c[nH]c(=O)c([N+](=O)[O-])c1Sc1nc2ccccc2o1 [Compound 9d, 5-methyl-3-nitro-4-(benzoxazol-2-yl)thiopyridin-2(1H)-one] | 5.5 | > 2 | 16 | – |
| O=c1[nH]cnc2c1ncn2[C@H]1CC[C@@H](CO)O1 [ddl] | – | – | – | activity at 1 µM (isolated virion HIV-1LAI; [5]): 100%; activity at 10 µM (isolated virion HIV-1LAI; [6]): 100%; activity on the isolated virion (in words) (isolated virion HIV-1LAI): totally inactive |
| CCOCc1c[nH]c(=O)c([N+](=O)[O-])c1Sc1cc(C)cc(C)c1 [Compound 7g, 5-ethoxymethyl-3-nitro-4-(3', 5'-dimethylphenyl)thio-pyridin-2(1H)-one] | 0.005 | > 2000 | > 10 | – |
| CCOC(=O)Nc1c(Sc2cc(C)cc(C)c2)c(C)c[nH]c1=O [Compound 11f, 5-methyl-3-N-ethoxycarbamoyl-4-(3', 5'-dimethylphenyl)thio-pyridin-2(1H)-one] | 7.5 | > 13 | > 100 | – |
| CCCCCCC(=O)Nc1c(Sc2cc(C)cc(C)c2)c(C)c[nH]c1=O [Compound 11d, 3-heptanamido-5-methyl-4-(3', 5'-dimethylphenyl)thio-pyridin-2(1H)-one] | > 10 | – | > 10 | – |
| Cc1cnc(O)c([N+](=O)[O-])c1Sc1ccccc1 [Compound 7d, 5-methyl-3-nitro-4-phenylthio-pyridin-2(1H)-one] | > 10 | – | > 10 | – |
| Cc1c[nH]c(=O)c([N+](=O)[O-])c1SC1=NCCS1 [Compound 9f, 5-methyl-3-nitro-4-(thiazolin-2-yl) thio-pyridin-2(1H)-one] | 17 | > 1 | 21.5 | – |
| Cc1cc(C)cc(Sc2c(C)c[nH]c(=O)c2NC=O)c1 [Compound 11a, 3-formamido-5-methyl-4-(3', 5'-dimethylphenyl)thio-pyridin-2(1H)-one] | 6.6 | > 15 | > 100 | – |
| CCOCc1c[nH]c(=O)c(N)c1Sc1cc(C)cc(C)c1 [Compound 8g, 3-amino-5-ethoxymethyl-4-(3', 5'-dimethylphenyl)thio-pyridin-2(1H)-one] | 0.02 | > 500 | > 10 | – |
| Cc1c[nH]c(=O)c([N+](=O)[O-])c1Sc1nc2ccccc2[nH]1 [Compound 9c, 5-methyl-3-nitro-4-(benzimidazol-2-yl)thiopyridin-2(1H)-one] | 43.5 | > 1 | 54.5 | – |
| Cc1cnc(O)c(N)c1Sc1nc2ccccc2o1 [Compound 10, 3-amino-5-methyl-4-(benzoxazol-2-yl)thio-pyridin-2(1H)-one] | 8 | – | 7.5 | – |
| Nc1ccn([C@@H]2CS[C@H](CO)O2)c(=O)n1 [Compound 3TC] | – | – | – | activity at 1 µM (isolated virion HIV-1LAI; [5]): 100%; activity at 10 µM (isolated virion HIV-1LAI; [6]): 100%; activity on the isolated virion (in words) (isolated virion HIV-1LAI): totally inactive |
| Cc1cc(O)nc(Sc2c(C)cnc(O)c2[N+](=O)[O-])n1 [Compound 9b, 5-methyl-3-nitro-4-(4'-hydroxy-6'-methylpyrimidin-2-yl)thiopyridin-2(1H)-one] | > 100 | – | > 100 | – |
| Cc1cn([C@H]2C[C@H](N=[N+]=[N-])[C@@H](CO)O2)c(=O)[nH]c1=O [AZT, reference compound] | 0.003 | > 33333 | > 100 | IC50 (HIV-1 LAI; Human immunodeficiency virus 1, CEM-SS, Table 4, HIV-1 (LA1)/CEMSS, read-out: IC50): 0.00084 µM; activity at 1 µM (isolated virion HIV-1LAI; [4]): 99%; activity at 10 µM (isolated virion HIV-1LAI; [4]): 99%; activity on the isolated virion (in words) (isolated virion HIV-1LAI): totally inactive |
| Cc1cnc(O)c([N+](=O)[O-])c1Sc1nc2ccccc2s1 [Compound 9e, 5-methyl-3-nitro-4-(benzothiazol-2-yl)thio-pyridin-2(1H)-one] | 14.5 | – | 13.5 | – |
| Cc1ccnc2c1NC(=O)c1cccnc1N2C1CC1 [Nevirapine] | – | – | – | activity at 0.1 µM (isolated virion HIV-1LAI; Human immunodeficiency virus 1, 0.1 μM inhibitor, 3 h, 100 TCID50, compared with viral supernatant subjected to same treatments, mean of 1 to 4 experiments, read-out: Activity of the isolated virions after treatment): 86%; activity at 1 µM (isolated virion HIV-1LAI; [5]): 86%; activity at 10 µM (isolated virion HIV-1LAI; [6]): 111%; activity on the isolated virion (in words) (isolated virion HIV-1LAI): totally inactive |
| Cc1cc(C)cc(Sc2c(C)cnc(O)c2NC(=O)Cc2ccccc2)c1 [Compound 11e, 5-methyl-3-phenylacetamido-4-(3', 5'-dimethylphenyl)thio-pyridin-2(1H)-one] | > 10 | – | > 10 | – |
